These are literature values, as cited in US11602509B2, “Salt of cysteamine for the preparation of highly respirable particles” (RECORDATI INDUSTRIA CHIMICA E FARMACEUTICA SPA, priority 2018, dated 2023).

Each structure is given as a SMILES string.

Turning to `NCCS` [cysteamine free base, cysteamine], the pKa (commonly the negative logarithm of the acid dissociation constant) is 9.42.
